Test results: patent US9938262B2, “Benzamides” (Merck Patent GmbH, priority 2011, dated 2018)
Like-named read-outs stand apart in the source and are kept apart here.

Experiments:
[1] = molecular target: T1, follicle-stimulating hormone (FSH) receptor (Rattus norvegicus, UniProt P20395); experiment: Rat granulosa EC50 FSH (Assay B); assay type: cell-based; details: rat granulosa cells
T1 construct: endogenous in cells; host or cells: rat granulosa cells
T1 sequence (P20395 18-692): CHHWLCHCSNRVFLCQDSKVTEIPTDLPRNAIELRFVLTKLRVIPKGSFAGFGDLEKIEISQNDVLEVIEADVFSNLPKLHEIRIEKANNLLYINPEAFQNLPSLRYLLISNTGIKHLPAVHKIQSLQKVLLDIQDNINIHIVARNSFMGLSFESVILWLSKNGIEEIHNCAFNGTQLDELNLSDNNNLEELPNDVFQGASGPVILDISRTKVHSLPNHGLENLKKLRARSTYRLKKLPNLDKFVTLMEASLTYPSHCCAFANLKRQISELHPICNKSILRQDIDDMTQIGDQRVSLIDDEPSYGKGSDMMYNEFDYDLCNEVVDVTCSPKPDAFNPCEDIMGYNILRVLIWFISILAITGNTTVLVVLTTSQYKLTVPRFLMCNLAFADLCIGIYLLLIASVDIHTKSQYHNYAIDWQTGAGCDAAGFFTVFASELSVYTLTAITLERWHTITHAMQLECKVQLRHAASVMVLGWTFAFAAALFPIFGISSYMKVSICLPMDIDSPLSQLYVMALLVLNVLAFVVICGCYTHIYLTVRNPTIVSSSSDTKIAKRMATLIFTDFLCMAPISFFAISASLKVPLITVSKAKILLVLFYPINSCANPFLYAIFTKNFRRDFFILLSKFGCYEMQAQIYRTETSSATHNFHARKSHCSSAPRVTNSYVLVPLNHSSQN
Procedure: Example 11: Rat Granulosa EC50 FSH (Assay B)
The assay was performed pursuant to the teaching of Yanofsky et al. (2006) Allosteric activation of the follicle-stimulating hormone (FSH) receptor by selective, nonpeptide agonists. JBC 281(19): 13226-13233, which is incorporated by reference in the disclosure of the invention.

FSHR = molecular target: T2, FSHR (Homo sapiens, UniProt P23945); experiment: EC50 of cyclic AMP production in CHO FSHR cells + EC20 FSH (Assay A); assay type: cell-based; details: CHO FSHR cells + EC20 FSH, read-out: Assay A EC50 of cyclic AMP production
T2 construct: expressed in transfected cells; host or cells: CHO (Cho-FSHR-LUC-1-1-43)
In short: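 cAMP HTRF ratio (665/620 nm) read after 1 h, 37 °C exposure of CHO-FSHR cells to compound in presence of EC20 FSH ([…]) and IBMX 200 μM. Responses given relative to FSH standard maximum; EC50 derived.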

T2 sequence (P23945 18-695): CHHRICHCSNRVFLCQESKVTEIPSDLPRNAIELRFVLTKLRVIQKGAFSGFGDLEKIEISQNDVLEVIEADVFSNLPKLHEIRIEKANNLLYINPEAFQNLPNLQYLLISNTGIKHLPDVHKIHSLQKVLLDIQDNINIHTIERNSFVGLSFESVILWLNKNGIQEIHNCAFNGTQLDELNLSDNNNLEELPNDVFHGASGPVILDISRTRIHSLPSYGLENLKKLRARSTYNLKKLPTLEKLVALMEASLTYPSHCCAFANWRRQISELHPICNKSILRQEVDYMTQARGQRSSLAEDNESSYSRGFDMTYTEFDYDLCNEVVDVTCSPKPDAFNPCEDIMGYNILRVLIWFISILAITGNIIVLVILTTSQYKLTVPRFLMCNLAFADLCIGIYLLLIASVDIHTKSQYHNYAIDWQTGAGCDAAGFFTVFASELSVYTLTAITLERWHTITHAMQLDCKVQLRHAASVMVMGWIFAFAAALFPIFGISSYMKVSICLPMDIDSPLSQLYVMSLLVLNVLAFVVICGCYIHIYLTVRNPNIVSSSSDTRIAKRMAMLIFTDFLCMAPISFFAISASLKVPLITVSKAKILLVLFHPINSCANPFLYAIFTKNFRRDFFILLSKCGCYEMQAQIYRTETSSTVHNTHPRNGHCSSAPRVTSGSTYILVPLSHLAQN
T2 sequence (P01215 25-116 partner): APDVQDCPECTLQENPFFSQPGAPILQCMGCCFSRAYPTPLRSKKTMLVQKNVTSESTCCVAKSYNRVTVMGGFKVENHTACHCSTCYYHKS
T2 sequence (P01225 19-129 partner): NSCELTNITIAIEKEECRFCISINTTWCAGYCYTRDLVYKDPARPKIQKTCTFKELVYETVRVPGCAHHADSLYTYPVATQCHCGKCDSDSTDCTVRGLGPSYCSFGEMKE

Row | EC50 ([1]; Table 1) | EC50 (FSHR; Table 1) | EC50 ([1]; Table 2) | EC50 (FSHR; Table 2) | Compound
1 | 0.1 to 1 µM | 0.1 to 1 µM |  |  | Cc1csc(C(=O)Nc2cc(C(=O)NCCCN3CCCC3=O)ccc2N2CCN(c3ccccc3C)CC2)n1 [Compound 203]
2 |  |  | < 0.1 µM | 0.1 to 1 µM | Cc1ccccc1N1CCN(c2ccc(C(=O)NCCCN3C(=O)[C@H]4C[C@@H]3C(O)C4O)cc2NC(=O)c2coc(C3CC3)n2)CC1 (stereo partly shown) [Compound 365]

Second part, the compound before the results:

Row | Compound | EC50 ([1]; Table 1) | EC50 (FSHR; Table 1) | EC50 ([1]; Table 2) | EC50 (FSHR; Table 2)
3 | Cc1ccccc1N1CCN(c2ccc(C(=O)NCCCN3CCCC3=O)cc2NS(=O)(=O)c2cccc3cccnc23)CC1 [Compound 45] | 0.1 to 1 µM | 0.1 to 1 µM |  | 
4 | Cc1ccccc1N1CCN(c2ccc(C(=O)NCCCN3CCCC3=O)cc2NC(=O)c2ccccc2F)CC1 [Compound 85] | 1 to 10 µM | 0.1 to 1 µM |  | 
5 | Cc1ccccc1N1CCN(c2ccc(C(=O)NCCCN3CCCC3=O)cc2NC(=O)c2ccco2)CC1 [Compound 2] | 1 to 10 µM | < 0.1 µM |  | 
